Target: T1, human β-Secretase (Homo sapiens, UniProt P56817)
T1 construct: The soluble part of the human β-Secretase (AA 1-AA 460) was cloned; made in house
Experiment: TR-FRET assay
Assay type: biochemical

T1 sequence (P56817 22-460): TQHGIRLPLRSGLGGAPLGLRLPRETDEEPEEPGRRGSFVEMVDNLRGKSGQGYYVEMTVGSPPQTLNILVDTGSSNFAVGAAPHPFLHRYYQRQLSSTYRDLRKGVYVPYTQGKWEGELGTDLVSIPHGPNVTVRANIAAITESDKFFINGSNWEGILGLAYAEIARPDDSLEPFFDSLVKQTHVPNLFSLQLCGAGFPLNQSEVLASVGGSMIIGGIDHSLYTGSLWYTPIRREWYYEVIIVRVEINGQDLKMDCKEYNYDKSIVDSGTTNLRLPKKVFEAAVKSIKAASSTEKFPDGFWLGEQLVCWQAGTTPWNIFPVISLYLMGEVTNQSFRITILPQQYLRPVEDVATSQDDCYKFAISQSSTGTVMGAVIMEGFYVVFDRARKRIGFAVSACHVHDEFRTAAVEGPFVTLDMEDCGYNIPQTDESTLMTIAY

IC50 [nM]	Structure (SMILES)
1070	Cc1nn(C)c(Cl)c1S(=O)(=O)Oc1cccc(C2(c3cc(Cl)nc(Cl)c3)N=C(N)c3ccccc32)c1 (centres unmarked) [Example 131, 3-[3-Amino-1-(2,6-dichloropyridin-4-yl)-1H-isoindol-1-yl]phenyl 5-chloro-1,3-dimethyl-1H-pyrazole-4-sulfonate]
3240	NC1=NC(c2cccc(OS(=O)(=O)c3c(F)cccc3F)c2)(c2cc(Cl)nc(Cl)c2)c2ccccc21 (centres unmarked) [Example 133, 3-[3-Amino-1-(2,6-dichloropyridin-4-yl)-1H-isoindol-1-yl]phenyl 2,6-difluorobenzenesulfonate]
347	NC1=NC(c2cccc(OS(=O)(=O)C(F)(F)F)c2)(c2ccc(F)c(-c3cncnc3)c2)c2ccccc21 (centres unmarked) [Example 134, 3-[3-Amino-1-(4-fluoro-3-pyrimidin-5-ylphenyl)-1H-isoindol-1-yl]phenyl trifluoromethanesulfonate]
269	NC1=NC(c2cccc(OS(=O)(=O)C(F)(F)F)c2)(c2ccc(F)c(-c3cccnc3F)c2)c2ccccc21 (centres unmarked) [Example 135]
457	NC1=NC(c2ccc(OS(=O)(=O)C(F)(F)F)cc2)(c2ccc(F)c(-c3cncnc3)c2)c2ccccc21 (centres unmarked) [Example 136, 4-[3-Amino-1-(4-fluoro-3-pyrimidin-5-ylphenyl)-1H-isoindol-1-yl]phenyl trifluoromethanesulfonate]

From US7855213B2 (AstraZeneca AB, priority 2006, dated 2010)
